Reference: the supplement of paper PMC10307832

What was measured:
Assay in all cases: relative viability (nuclei count vs DMSO), 5 days (fraction); higher = more cells survive
KIN001-266 + Luminespib = compound: CCN1CCC(CC1)N2C=C(N=N2)CNC3=CC4=C(C(=CN=C4C(=C3)Cl)C#N)NC5=CC(=C(C=C5)F)Cl [KIN001-266] + CCNC(=O)c1noc(-c2cc(C(C)C)c(O)cc2O)c1-c1ccc(CN2CCOCC2)cc1 [Luminespib] (partner 0.01 µM)
In short: (§1)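 Cells from lung cancer lines were seeded into 1536-well plates and, one day later, dosed by pin tool. Treatments were either a single drug or a fixed dose of an anchor drug with five library-drug doses (not always all listed) in √10 steps. After 5 days, nuclei were stained in a one-step fixation (final 0.05% Triton X-100, 1% formaldehyde, 1 ug/ml Hoechst) and counted on 4× images, and relative viability is the treated-to-vehicle nuclei ratio, as the median of duplicate plates.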

KIN001-266 + Tozasertib = compound: CCN1CCC(CC1)N2C=C(N=N2)CNC3=CC4=C(C(=CN=C4C(=C3)Cl)C#N)NC5=CC(=C(C=C5)F)Cl [KIN001-266] + Cc1cc(Nc2cc(N3CCN(C)CC3)nc(Sc3ccc(NC(=O)C4CC4)cc3)n2)n[nH]1 [Tozasertib] (partner 0.1 µM)
In short: as §1

KIN001-266 + Alpelisib = compound: CCN1CCC(CC1)N2C=C(N=N2)CNC3=CC4=C(C(=CN=C4C(=C3)Cl)C#N)NC5=CC(=C(C=C5)F)Cl [KIN001-266] + Cc1nc(NC(=O)N2CCC[C@H]2C(N)=O)sc1-c1ccnc(C(C)(C)C(F)(F)F)c1 [Alpelisib] (partner 2 µM)
In short: as §1

KIN001-266 + Dasatinib = compound: CCN1CCC(CC1)N2C=C(N=N2)CNC3=CC4=C(C(=CN=C4C(=C3)Cl)C#N)NC5=CC(=C(C=C5)F)Cl [KIN001-266] + Cc1nc(Nc2ncc(C(=O)Nc3c(C)cccc3Cl)s2)cc(N2CCN(CCO)CC2)n1 [Dasatinib] (partner 0.075 µM)
In short: as §1

| Cell Line | relative viability (KIN001-266 + Luminespib; first compound 0.08 µM) | relative viability (KIN001-266 + Luminespib; first compound 0.253 µM) | relative viability (KIN001-266 + Luminespib; first compound 0.8 µM) | relative viability (KIN001-266 + Luminespib; first compound 2.53 µM) | relative viability (KIN001-266 + Luminespib; first compound 8 µM) | relative viability (KIN001-266 + Tozasertib; first compound 0.08 µM) | relative viability (KIN001-266 + Tozasertib; first compound 0.253 µM) | relative viability (KIN001-266 + Tozasertib; first compound 0.8 µM) | relative viability (KIN001-266 + Tozasertib; first compound 2.53 µM) | relative viability (KIN001-266 + Tozasertib; first compound 8 µM) | relative viability (KIN001-266 + Alpelisib; first compound 0.08 µM) | relative viability (KIN001-266 + Alpelisib; first compound 0.253 µM) | relative viability (KIN001-266 + Alpelisib; first compound 0.8 µM) | relative viability (KIN001-266 + Alpelisib; first compound 2.53 µM) | relative viability (KIN001-266 + Alpelisib; first compound 8 µM) | relative viability (KIN001-266 + Dasatinib; first compound 0.08 µM) | relative viability (KIN001-266 + Dasatinib; first compound 0.253 µM) | relative viability (KIN001-266 + Dasatinib; first compound 0.8 µM) | relative viability (KIN001-266 + Dasatinib; first compound 2.53 µM) | relative viability (KIN001-266 + Dasatinib; first compound 8 µM) |
| --- | --- | --- | --- | --- | --- | --- | --- | --- | --- | --- | --- | --- | --- | --- | --- | --- | --- | --- | --- | --- |
| 201T | 1.05 | 1.05 | 1 | 1.04 | 1.06 | 0.915 | 0.915 | 0.915 | 0.919 | 0.856 | 1.03 | 1 | 1.02 | 1.05 | 1.01 | 0.62 | 0.513 | 0.545 | 0.606 | 0.589 |
| A-427 | 0.874 | 0.843 | 0.979 | 0.913 | 0.969 | 0.24 | 0.21 | 0.178 | 0.186 | 0.181 | 1.12 | 1.05 | 1.04 | 1.02 | 0.998 | 0.742 | 0.614 | 0.661 | 0.686 | 0.575 |
| ABC-1 | 0.757 | 0.956 | 0.655 | 1.02 | 0.378 | 0.156 | 0.227 | 0.199 | 0.166 | 0.204 | 1.23 | 1.08 | 1.09 | 0.812 | 0.976 | 0.521 | 0.632 | 0.652 | 0.489 | 0.399 |
| BEN | 0.559 | 0.651 | 0.861 | 0.288 | 0.458 | 0.479 | 0.534 | 0.491 | 0.484 | 0.506 | 0.841 | 1.08 | 1.03 | 0.997 | 0.916 | 0.296 | 0.362 | 0.292 | 0.274 | 0.345 |
| CAL-12T | 0.363 | 0.322 | 0.499 | 0.475 | 0.2 | 0.345 | 0.3 | 0.291 | 0.312 | 0.255 | 1.43 | 1.39 | 1.11 | 1.3 | 1.02 | 0.444 | 0.49 | 0.345 | 0.52 | 0.278 |
| COR-L23 | 0.638 | 0.636 | 0.694 | 0.621 | 0.423 | 0.19 | 0.182 | 0.206 | 0.164 | 0.151 | 0.735 | 0.804 | 0.814 | 0.736 | 0.404 | 0.523 | 0.495 | 0.476 | 0.484 | 0.372 |
| COR-L 105 | 0.616 | 0.802 | 0.758 | 0.743 | 1.02 | 0.388 | 0.322 | 0.381 | 0.342 | 0.296 | 1.15 | 0.859 | 1.14 | 0.9 | 0.896 | 0.373 | 0.419 | 0.343 | 0.377 | 0.326 |
| Calu-6 |  |  |  |  |  |  |  |  |  |  | 1.16 | 0.915 | 1.1 | 0.915 | 0.86 |  |  |  |  |  |
| ChaGo-K-1 | 0.689 | 0.741 | 0.385 | 0.57 | 0.327 | 0.245 | 0.218 | 0.213 | 0.207 | 0.198 |  |  |  |  |  | 0.581 | 0.58 | 0.528 | 0.512 | 0.533 |
| EKVX | 0.86 | 0.869 | 0.735 | 0.89 | 0.986 | 0.319 | 0.376 | 0.374 | 0.392 | 0.409 | 0.871 | 0.817 | 0.83 | 0.807 | 0.877 | 0.468 | 0.519 | 0.549 | 0.533 | 0.406 |
| EMC-BAC-2 | 1.27 | 1.25 | 1.11 | 1.18 | 1.25 | 0.307 | 0.316 | 0.292 | 0.29 | 0.281 | 0.718 | 0.751 | 0.749 | 0.743 | 0.733 | 0.352 | 0.392 | 0.319 | 0.373 | 0.331 |
| EPLC-272H | 0.253 | 0.268 | 0.323 | 0.181 | 0.176 | 0.258 | 0.377 | 0.383 | 0.244 | 0.208 | 1.05 | 0.874 | 0.938 | 0.842 | 0.74 | 0.467 | 0.324 | 0.333 | 0.421 | 0.234 |
| H3255 | 0.909 | 0.945 | 0.935 | 0.847 | 0.912 | 0.699 | 0.601 | 0.502 | 0.499 | 0.512 | 0.685 | 0.737 | 0.756 | 0.785 | 0.475 | 0.359 | 0.334 | 0.288 | 0.404 | 0.346 |
| HARA | 0.704 | 0.718 | 0.395 | 0.878 | 0.307 | 0.124 | 0.13 | 0.102 | 0.0995 | 0.0873 | 0.771 | 0.77 | 0.835 | 0.847 | 0.59 | 0.26 | 0.256 | 0.231 | 0.264 | 0.281 |
| HCC-15 | 0.232 | 0.475 | 0.241 | 0.248 | 0.136 | 0.443 | 0.358 | 0.25 | 0.24 | 0.19 | 0.867 | 0.849 | 0.766 | 0.781 | 0.586 | 0.683 | 0.592 | 0.566 | 0.596 | 0.448 |
| HCC-44 | 1.02 | 1.04 | 1.1 | 1.01 | 1.19 | 0.886 | 0.917 | 0.976 | 0.987 | 0.865 | 0.806 | 0.838 | 0.805 | 0.868 | 0.651 |  |  |  |  |  |
| HCC-78 |  |  |  |  |  | 0.404 | 0.444 |  | 0.373 | 0.317 | 0.302 | 0.346 | 0.377 | 0.46 | 0.411 | 0.566 | 0.421 |  | 0.361 | 0.38 |
